According to US9512086B2, “Compound for promoting apoptosis of cancer cells and a pharmaceutical composition containing the same and uses thereof” (National Chiao Tung University, priority 2014, dated 2016):
“Also recorded” adds a separate entry of the source.

How the values were obtained:
survivin [1] = assay: Western blot of survivin protein expression in A549 cells; details: 0 to 40 μM, 24 hours
Protocol: (§4) The protease inhibitors including 1 μg/ml aprotinin, 0.5 μg/ml leupeptin, and 100 μg/ml 4-(2-aminoethyl)benzenesulfonyl fluoride were added to the cell suspensions. The lysates were vibrated for 30 minutes at 4° C. and centrifuged at 10,000 rpm for 10 minutes. The protein concentrations were determined by the BCA protein assay kit (Pierce, Rockford, Ill.). […] The membranes were blocked overnight at 4° C. using blocking buffer (5% non-fat dried milk in solution containing 50 mM Tris/HCl (pH 8.0), 2 mM CaCl2, 80 mM NaCl, 0.05% Tween 20 and 0.02% sodium azide). The membranes were sequentially hybridized with primary antibody and followed with a horseradish peroxidase-conjugated secondary antibody. The protein bands were visualized on the X-ray film using the enhanced chemiluminescence detection system (PerkinElmer Life and Analytical Sciences, Boston, Mass.). […] To verify equal protein loading and transfer, actin was used as the protein loading control. The gel digitizing software, Un-Scan-It gel (Ver. 5.1, Silk Scientific, Inc., Orem, Utah), was used to analyze the intensity of protein bands on X-ray film.
(§5) A549 cells were plated at a density of 1×10^6 cells per 60-mm Petri dish in complete medium for 16 to 20 hours. […] To verify equal protein loading and transfer, actin was used as the protein loading control.

[2] = MTT cell viability, HFL1 normal lung fibroblasts; format: cell-based; details: human, HFL1 normal lung fibroblast cells, 0 to 40 μM
Protocol: (§1) After drug treatment, the cells were washed with PBS and replaced with fresh complete RPMI-1640 medium for 2 days. Thereafter, the medium was replaced and the cells were incubated with 0.5 mg/mL of MTT reagent (Sigma Chemical Co., St. Louis, Mo.) in complete RPMI-1640 medium for 4 hours. The intensity of formazan was measured at 565 nm using a plate reader (VERSAmax, Molecular Dynamics, Sunnyvale, Calif.). The relative percentage of cell viability was calculated by dividing the absorbance of treated cells by that of the control in each experiment.

[3] = target: T1, STK10 (lymphocyte-oriented kinase) (Homo sapiens, UniProt O94804); assay: KinaseProfiler assay, STK10; format: biochemical; details: read-out: KAR value (kinase activity remaining)
T1 construct: purchased Merck Millipore (KinaseProfiler service)
Description: (§2) The kinase activity remaining (KAR) value is […] related to kinase activity. […]

caspase 3 = assay: Western blot of active caspase 3 in A549 cells; details: 10-40 μM, 24 hours
Protocol: as §4, §5

[4] = target: T2, EGFR (epidermal growth factor receptor) (Homo sapiens, UniProt P00533); assay: KinaseProfiler assay, EGFR; format: biochemical; details: read-out: KAR value (kinase activity remaining)
T2 construct: purchased Merck Millipore (KinaseProfiler service)

[5] = tested on: A549 human lung xenograft tumors; assay: Tumor growth of xenograft human lung tumors in nude mice; format: in vivo; details: 30 mg/kg three times every 4 days, day 16; control groups 406.52 mm^3
Description: (§3) The present invention determines the effect of Analogue-18 on tumor growth of the xenograft human lung tumors in nude mice. BALB/cAnN.Cg-FoxnInu/CrlNarl mice (3-week-old male) were obtained from BioLASCO (BioLASCO Co., Ltd., Taipei, Taiwan). After 2 weeks for environmental adaption, the mice were used for human lung cancer cell inoculation. Solid A549 flank tumors were established by subcutaneous injection of 2×10^6 cells. After 10 days, the mice bearing A549 human lung xenograft tumors were injected with 100 μl corn oil (control) or 30 mg/kg Analogue-18 for three times every 4 days. The tumor size of the mice was measured by a digital caliper every 4 days and calculated by the following formula: (length)×(width)^2×0.5. The xenograft tumors were harvested from scarified mice. The tumors were homogenized and the total lysate were subjected to Western blot analysis according to Example 4.

PARP = assay: Western blot of cleaved PARP in A549 cells; details: 10-40 μM, 24 hours
Protocol: as §4, §5

A549 cells [6] = assay: Annexin V-PI apoptosis analysis by flow cytometry; format: cell-based, human; details: 10-40 μM for 24 hours
Protocol: The Annexin V-PI staining kit (BioVision, Mountain View, Calif.) was used to exam the cells by incubating with fluorescent isothiocyanate (FITC)-conjugated-Annexin V and PI according to the manufacturer's instruction. […] The cells were cultured in 60-mm Petri dish at a density of 7×10^5 cells for 16 to 20 hours. […] The cells were trypsinized and collected by centrifugation at 1500 rpm for 5 minutes. Thereafter, the cells were incubated with 500 μl Annexin V-PI labeling solution (containing 5 μl Annexin V-FITC and 5 μl PI in PBS) at room temperature in the dark for 5 minutes. To avoid cell aggregation, the cell solutions were filtered through a nylon mesh membrane (Becton-Dickinson, San Jose, Calif.). Finally, the samples were analyzed immediately using flow cytometer (FACS Calibur, BD Biosciences, Heidelberg, Germany). The percentage of Annexin V-PI staining cells was quantified from a minimum of 10,000 cells by CellQuest software (BD Biosciences).

[7] = target: T3, MAPK14 (stress-activated protein kinase-2a) (Homo sapiens, UniProt Q16539); assay: KinaseProfiler assay, MAPK14; format: biochemical; details: MAPK14; 10 μM; read-out: KAR value (kinase activity remaining)
T3 construct: purchased Merck Millipore (KinaseProfiler service)
Description: as §2

[8] = target: T4, MKNK2 (MAPK-interacting kinase-2) (Homo sapiens, UniProt Q9HBH9); assay: KinaseProfiler assay, MKNK2; format: biochemical; details: read-out: KAR value (kinase activity remaining)
T4 construct: purchased Merck Millipore (KinaseProfiler service)
Description: as §2

A549 cell line = assay: MTT cell viability, A549 cell line; format: cell-based, human
Protocol: The above cell lines were plated in 96-well plates at a density of 1×10^4 cells/well for 16 to 20 hours. […] After drug treatment, the cell lines were washed with phosphate-buffered saline (hereinafter referred to PBS), and were replaced with fresh complete RPMI-1640 medium for 2 days. Thereafter, the medium was replaced and the cells were incubated with 0.5 mg/ml of 3-(4,5-dimethylthiazol-2-yl)-2,5-diphenyltetrazolium bromide reagent (hereinafter referred to MTT, Sigma Chemical Co., St. Louis, Mo.) in complete RPMI-1640 medium for 4 hours. The viable cells converted MTT to formazan that generates a blue-purple color when dissolved in dimethyl sulfoxide (hereinafter referred to DMSO). The intensity of formazan was measured at 565 nm using a plate reader (VERSAmax, Molecular Dynamics, Sunnyvale, Calif.). The relative percentage of cell viability was calculated by dividing the absorbance of treated cells by that of the control in each experiment.
as §1

survivin [9] = assay: Western blot of survivin protein in xenograft tumors; format: in vivo, nude mice; details: 30 mg/kg three times every 4 days
Description: as §3

MARK2 (PAR-1Ba) = target: T5, MARK2 (PAR-1Ba) (Homo sapiens, UniProt Q7KZI7); assay: KinaseProfiler assay, MARK2; format: biochemical; details: MARK2; 10 μM; read-out: KAR value (kinase activity remaining)
T5 construct: purchased Merck Millipore (KinaseProfiler service)
Description: as §2

[10] = target: T6, RET (product of ret proto-oncogene) (Homo sapiens, UniProt P07949); assay: KinaseProfiler assay, RET; format: biochemical; details: RET; 10 μM; read-out: KAR value (kinase activity remaining)
T6 construct: purchased Merck Millipore (KinaseProfiler service)
Description: as §2

A549 cells [11] = assay: Cell cycle analysis, PI staining and flow cytometry; format: cell-based, human; details: 24 hours
Protocol: After the treatment, the cells were collected and fixed with ice-cold 70% ethanol overnight at −20° C. After centrifugation at 1500 rpm for 5 minutes, the pellets were treated with 4 μg/ml PI solution containing 1% Triton X-100 and 50 μg/ml RNase at 37 °C for 30 minutes in the dark. To avoid cell aggregation, the cell solutions were filtrated through nylon membrane (Becton-Dickinson, San Jose, Calif.). Subsequently, the samples were analyzed by flow cytometry. For each measurement, 10,000 cells were analyzed for DNA content. The percentage of cell cycle phases was quantified by ModFit LT software (Ver. 2.0, Becton-Dickinson).

[12] = target: T7, FGFR1 (fibroblast growth factor receptor-1) (Homo sapiens, UniProt P11362); assay: KinaseProfiler assay, FGFR1; format: biochemical; details: read-out: KAR value (kinase activity remaining)
T7 construct: purchased Merck Millipore (KinaseProfiler service)
Description: as §2

survivin [13] = assay: RT-PCR of survivin gene expression in A549 cells; format: cell-based, human; details: 0 to 40 μM, 24 hours
Protocol: After the treatment, total cellular RNA was purified by ZR RNA MiniPrep™ (Zymo Research, Irvine, Calif.) according to the manufacturer's protocol. RNA concentrations were determined by spectrophotometry. cDNAs were synthesized by SuperScript™ III reverse transcriptase with oligo (dT)12-18 primer (Invitrogen). Each reverse transcript was amplified with GAPDH as an internal control. Reverse transcription polymerase chain reaction (RT-PCR) was performed by a DNA thermal cycler (Mastercycler gradient, Hamburg, Germany). […] The conditions of RT-PCR are stated as followed: the initial denaturation was performed at 94° C. for 2 minutes, followed by 30 cycles at 94° C. for 30 seconds, 56° C. for 30 seconds, and 72° C. for 40 seconds; and 72° C. for 5 minutes. The PCR products were visualized on 1.2% agarose gels with ethidium bromide staining under UV transillumination, and photograph was taken by a camera DH27-S3 (Medclub, Taoyuan, Taiwan).

LCK (lymphocyte kinase) = target: T8, LCK (lymphocyte kinase) (Homo sapiens, UniProt P06239); assay: KinaseProfiler assay, LCK; format: biochemical; details: read-out: KAR value (kinase activity remaining)
T8 construct: purchased Merck Millipore (KinaseProfiler service)

[14] = tested on: CL3 human lung cancer cell line; assay: MTT cell viability, CL3 cells; format: cell-based; details: 24 hours
Protocol: as §1

T5 sequence (Q7KZI7 1-725 isoform Q7KZI7-4): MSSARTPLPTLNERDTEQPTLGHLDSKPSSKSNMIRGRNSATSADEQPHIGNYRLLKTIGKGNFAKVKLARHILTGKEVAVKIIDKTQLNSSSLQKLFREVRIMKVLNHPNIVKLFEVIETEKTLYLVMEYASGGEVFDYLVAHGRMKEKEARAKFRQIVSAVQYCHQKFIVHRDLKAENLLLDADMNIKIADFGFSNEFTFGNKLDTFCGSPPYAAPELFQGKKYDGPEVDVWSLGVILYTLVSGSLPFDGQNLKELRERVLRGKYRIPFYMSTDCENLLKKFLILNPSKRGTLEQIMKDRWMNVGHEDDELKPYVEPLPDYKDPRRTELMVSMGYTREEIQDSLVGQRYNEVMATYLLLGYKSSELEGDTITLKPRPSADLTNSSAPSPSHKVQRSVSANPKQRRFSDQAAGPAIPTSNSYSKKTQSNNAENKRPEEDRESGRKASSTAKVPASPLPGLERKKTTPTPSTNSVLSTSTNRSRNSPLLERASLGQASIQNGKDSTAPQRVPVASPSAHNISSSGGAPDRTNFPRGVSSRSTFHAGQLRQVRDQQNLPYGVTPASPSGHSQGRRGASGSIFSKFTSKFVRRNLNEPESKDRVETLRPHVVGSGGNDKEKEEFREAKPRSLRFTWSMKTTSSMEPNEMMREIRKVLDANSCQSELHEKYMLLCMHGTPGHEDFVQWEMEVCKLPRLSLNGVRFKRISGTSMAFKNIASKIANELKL
T6 sequence (P07949 29-1114): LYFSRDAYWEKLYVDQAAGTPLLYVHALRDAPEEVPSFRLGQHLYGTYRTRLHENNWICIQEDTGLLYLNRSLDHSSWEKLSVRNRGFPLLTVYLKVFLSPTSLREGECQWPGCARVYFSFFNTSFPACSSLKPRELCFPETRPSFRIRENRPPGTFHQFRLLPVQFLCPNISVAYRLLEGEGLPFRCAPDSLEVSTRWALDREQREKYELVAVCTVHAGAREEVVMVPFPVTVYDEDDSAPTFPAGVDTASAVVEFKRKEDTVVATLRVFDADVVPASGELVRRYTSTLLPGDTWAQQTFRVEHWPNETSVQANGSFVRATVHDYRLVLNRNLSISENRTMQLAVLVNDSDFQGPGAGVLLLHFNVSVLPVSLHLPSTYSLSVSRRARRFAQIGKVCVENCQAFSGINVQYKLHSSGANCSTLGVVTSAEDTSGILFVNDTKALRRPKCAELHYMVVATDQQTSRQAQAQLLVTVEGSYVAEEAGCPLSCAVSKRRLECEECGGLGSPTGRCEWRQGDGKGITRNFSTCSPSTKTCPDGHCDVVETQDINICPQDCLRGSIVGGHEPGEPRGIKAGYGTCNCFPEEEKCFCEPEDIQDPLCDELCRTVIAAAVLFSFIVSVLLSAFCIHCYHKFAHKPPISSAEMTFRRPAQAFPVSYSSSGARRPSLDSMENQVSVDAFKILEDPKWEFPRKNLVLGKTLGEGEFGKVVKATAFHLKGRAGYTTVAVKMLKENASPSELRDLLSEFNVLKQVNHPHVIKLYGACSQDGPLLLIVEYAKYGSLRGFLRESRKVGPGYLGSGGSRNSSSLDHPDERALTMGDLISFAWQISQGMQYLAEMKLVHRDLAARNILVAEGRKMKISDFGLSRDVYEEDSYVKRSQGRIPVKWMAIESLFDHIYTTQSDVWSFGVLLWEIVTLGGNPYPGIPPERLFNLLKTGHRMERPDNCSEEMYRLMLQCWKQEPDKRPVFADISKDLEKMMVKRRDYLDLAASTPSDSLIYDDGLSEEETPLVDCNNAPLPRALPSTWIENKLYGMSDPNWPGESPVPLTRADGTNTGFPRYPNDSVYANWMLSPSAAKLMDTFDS
T3 sequence (Q16539 whole entry): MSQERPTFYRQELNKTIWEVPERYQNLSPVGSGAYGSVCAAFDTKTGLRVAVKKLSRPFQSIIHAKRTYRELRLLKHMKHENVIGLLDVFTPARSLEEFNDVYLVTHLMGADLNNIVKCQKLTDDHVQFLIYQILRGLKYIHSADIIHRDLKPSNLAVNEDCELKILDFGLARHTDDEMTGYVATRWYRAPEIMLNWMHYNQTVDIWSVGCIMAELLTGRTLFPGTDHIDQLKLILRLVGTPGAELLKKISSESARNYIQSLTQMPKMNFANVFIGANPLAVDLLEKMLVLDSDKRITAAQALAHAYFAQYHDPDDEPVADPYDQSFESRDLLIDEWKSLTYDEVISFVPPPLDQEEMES
T7 sequence (P11362 22-822): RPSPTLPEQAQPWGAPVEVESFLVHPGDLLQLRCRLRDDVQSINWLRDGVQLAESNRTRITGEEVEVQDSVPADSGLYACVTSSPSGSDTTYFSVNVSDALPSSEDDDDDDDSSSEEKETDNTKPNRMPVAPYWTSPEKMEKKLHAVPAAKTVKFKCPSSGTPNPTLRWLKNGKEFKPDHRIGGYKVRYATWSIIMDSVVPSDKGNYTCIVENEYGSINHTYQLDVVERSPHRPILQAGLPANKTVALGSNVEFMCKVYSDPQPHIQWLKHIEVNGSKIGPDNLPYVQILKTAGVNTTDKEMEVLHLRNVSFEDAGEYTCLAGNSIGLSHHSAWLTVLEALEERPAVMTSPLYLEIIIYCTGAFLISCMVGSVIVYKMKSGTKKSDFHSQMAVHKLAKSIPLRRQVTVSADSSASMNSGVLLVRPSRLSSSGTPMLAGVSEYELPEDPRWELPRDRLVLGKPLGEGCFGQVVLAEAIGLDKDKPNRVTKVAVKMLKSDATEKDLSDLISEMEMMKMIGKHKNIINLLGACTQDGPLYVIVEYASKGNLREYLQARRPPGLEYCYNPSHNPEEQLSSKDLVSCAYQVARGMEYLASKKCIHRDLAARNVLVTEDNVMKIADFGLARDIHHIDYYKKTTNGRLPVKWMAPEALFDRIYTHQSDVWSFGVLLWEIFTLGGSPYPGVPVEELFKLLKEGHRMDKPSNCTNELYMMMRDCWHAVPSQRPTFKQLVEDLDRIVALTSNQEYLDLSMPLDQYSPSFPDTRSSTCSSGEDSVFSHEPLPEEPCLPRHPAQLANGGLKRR
T4 sequence (Q9HBH9 whole entry): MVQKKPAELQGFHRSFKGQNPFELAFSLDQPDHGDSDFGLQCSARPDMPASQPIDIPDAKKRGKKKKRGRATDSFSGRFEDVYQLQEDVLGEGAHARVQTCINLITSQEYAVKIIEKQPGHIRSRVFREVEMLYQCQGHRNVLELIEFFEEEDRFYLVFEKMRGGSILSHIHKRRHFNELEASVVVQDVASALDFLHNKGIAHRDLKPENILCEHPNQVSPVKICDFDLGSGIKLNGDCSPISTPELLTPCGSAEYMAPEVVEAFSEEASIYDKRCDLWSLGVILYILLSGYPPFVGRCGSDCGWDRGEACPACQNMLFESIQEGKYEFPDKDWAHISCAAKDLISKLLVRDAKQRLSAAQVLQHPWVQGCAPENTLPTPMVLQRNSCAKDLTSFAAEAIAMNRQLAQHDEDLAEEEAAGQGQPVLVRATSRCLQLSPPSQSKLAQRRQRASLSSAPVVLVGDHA
T2 sequence (P00533 25-1210): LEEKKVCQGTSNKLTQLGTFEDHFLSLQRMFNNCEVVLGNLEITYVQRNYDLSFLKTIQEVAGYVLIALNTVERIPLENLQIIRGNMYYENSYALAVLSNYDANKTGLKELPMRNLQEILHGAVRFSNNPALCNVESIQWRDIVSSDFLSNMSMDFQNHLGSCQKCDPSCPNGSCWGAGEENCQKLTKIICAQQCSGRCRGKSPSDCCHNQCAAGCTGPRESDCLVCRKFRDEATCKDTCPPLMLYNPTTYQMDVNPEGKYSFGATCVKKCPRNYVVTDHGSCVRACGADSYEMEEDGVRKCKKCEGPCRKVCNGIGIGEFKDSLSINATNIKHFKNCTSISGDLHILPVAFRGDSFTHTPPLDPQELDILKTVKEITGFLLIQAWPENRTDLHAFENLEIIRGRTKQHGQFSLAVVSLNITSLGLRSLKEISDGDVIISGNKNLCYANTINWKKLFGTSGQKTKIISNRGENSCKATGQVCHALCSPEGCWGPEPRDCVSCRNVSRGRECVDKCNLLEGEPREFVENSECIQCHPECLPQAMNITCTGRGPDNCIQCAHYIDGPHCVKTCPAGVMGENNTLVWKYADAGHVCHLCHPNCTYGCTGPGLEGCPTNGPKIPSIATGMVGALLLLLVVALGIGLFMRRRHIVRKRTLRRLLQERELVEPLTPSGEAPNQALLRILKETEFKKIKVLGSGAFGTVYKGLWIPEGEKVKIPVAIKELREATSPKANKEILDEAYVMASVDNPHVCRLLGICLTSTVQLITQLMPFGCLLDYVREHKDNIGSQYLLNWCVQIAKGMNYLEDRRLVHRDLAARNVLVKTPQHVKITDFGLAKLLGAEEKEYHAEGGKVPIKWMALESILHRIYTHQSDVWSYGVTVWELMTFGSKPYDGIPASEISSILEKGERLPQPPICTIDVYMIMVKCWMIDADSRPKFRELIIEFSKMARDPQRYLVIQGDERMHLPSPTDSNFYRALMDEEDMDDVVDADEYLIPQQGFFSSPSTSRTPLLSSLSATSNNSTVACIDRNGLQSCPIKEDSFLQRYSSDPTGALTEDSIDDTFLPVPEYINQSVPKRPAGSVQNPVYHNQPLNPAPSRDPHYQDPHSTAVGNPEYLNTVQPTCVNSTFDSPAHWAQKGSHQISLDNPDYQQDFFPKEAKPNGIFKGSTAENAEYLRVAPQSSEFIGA

In the case of `CCCCCCCCCCCCOC(=O)CCC(=O)N1CCN(CCCOc2cc3c(Nc4ccc(F)c(Cl)c4)ncnc3cc2OC)CC1` [Analogue-18, dodecyl 4-(4-(3-(4-(3-chloro-4-fluorophenylamino)-7-methoxyquinazolin-6-yloxy)propyl)piperazin-1-yl)-4-oxobutanoate], the survivin protein expression (survivin [1]) is reported as “significantly inhibited surviving protein expression”, the viability at 24 h [2] is reported as greater than 30% and the remaining activity at 10 µM [3] is reported as 43%. For the same compound, the “active form of caspase 3” value (caspase 3) was “significantly induced”, the remaining activity at 10 µM [4] was -2% and the average tumor size [5] was 118.19 mm^3. The “cleaved form of PARP” value (PARP) was “induced the cleaved form of PARP”, the “average of total apoptosis” value (A549 cells [6]) was “around 67.9%” and the remaining activity at 10 µM [7] was 87%. For the same compound, the remaining activity at 10 µM [8] was 85%, the “toxicity effect on A549 cell line” value (A549 cell line; 24 hours, in comparison with Iressa) was “best toxicity effect; also recorded: more effective on reducing cell viability than Iressa” and the toxicity effects (A549 cell line; A549, 40 μM, 24 hours) was “more than 99%”. The increased toxicity effect (A549 cell line; A549 cell line, 40 μM) was 15-20 times, the viability at 10 µM (A549 cell line; Homo sapiens, A549 cell line, 10 μM, 24 hours, MTT) was 95.5% and the viability at 20 µM (A549 cell line; Homo sapiens, A549 cell line, 20 μM, 24 hours, MTT) was 86.8%. For the same compound, the viability at 40 µM (A549 cell line; Homo sapiens, A549 cell line, 40 μM, 24 hours, MTT) was 5.7%, the viability at 60 µM (A549 cell line; Homo sapiens, A549 cell line, 60 μM, 24 hours, MTT) was 2% and the viability at 80 µM (A549 cell line; Homo sapiens, A549 cell line, 80 μM, 24 hours, MTT) was 2.3%. The “survivin protein levels of xenograft tumors” value (survivin [9]) was “significantly reduced about half amount”, the remaining activity at 10 µM (MARK2 (PAR-1Ba)) was 84% and the remaining activity at 10 µM [10] was 98%. The “fractions of G1, S and G2/M phases” value (A549 cells [11]; 0 to 40 μM) was “does not significantly alter”, the “average percentage of sub-G1 fractions” value (A549 cells [11]; 40 μM) was 66.7% and the remaining activity at 10 µM [12] was 82%. For the same compound, the survivin gene expression (survivin [13]) was “significantly inhibited in a concentration-dependent manner”, the remaining activity at 10 µM (LCK (lymphocyte kinase)) was 89% and the reducing cell viability ([14]; CL3, 0 to 40 μM, compared with Iressa) was “more effective on reducing cell viability than Iressa”. For the same compound, the toxicity effects ([14]; CL3, 40 μM) was “more than 99%”.
